We go through one compound from patent US20240139149A1, “THERAPEUTIC USES OF UROLITHIN DERIVATIVES” (Vandria SA, priority 2022, published 2024).

The test has as its system cortical neurons and microglial cells injured with Aβ1-42. Kind of test: Rat primary culture of cortical neurons and microglial cells injured with Aβ1-42. The format is cell-based. As for the experimental part: Pregnant female rat (Wistar) of 15 days of gestation were killed using a deep anesthesia with CO2 chamber and a cervical dislocation. Fetuses were collected and immediately placed in ice-cold L15 Leibovitz medium with a 2% penicillin (10,000 U/mL) and streptomycin (10 mg/mL) solution (PS) and 1% bovine serum albumin (BSA). Cortex were specifically dissected and then were treated for 20 min at 37° C. with a trypsin-EDTA solution at a final concentration of 0.05% trypsin and 0.02% EDTA. The dissociation was stopped by addition of Dulbecco's modified Eagle's medium (DMEM) with 4.5 g/L of glucose, containing DNAse I grade II (final concentration 0.5 mg/mL) and 10% fetal calf serum (FCS). Cells were mechanically dissociated by three forced passages through the tip of a 10-mL pipette. Cells were then centrifuged at 515×g for 10 min at 4° C. The supernatant was discarded, and the pellet was resuspended in a defined culture medium consisting of Neurobasal medium with a 2% solution of B27 supplement, 2 mmol/liter of L-glutamine, 2% of PS solution, 10 ng/mL of brain-derived neurotrophic factor (BDNF), 2% of heat-inactivated horse serum, 2% of heat-inactivated FCS, 1 g/L of glucose, 1 mM of sodium pyruvate, and 100 μM of non-essential amino acids. The presence of serum in the medium allows the growth of the microglial cells. Viable cells were counted in a Neubauer cytometer, using the trypan blue exclusion test.
The cells were seeded at a density of 45 000 per well in 96-well plate precoated with poly-L-lysine and were cultured at 37° C. in an air (95%)—CO2 (5%) incubator. The medium was changed every 2 days.
On day 11 of culture, the compounds were dissolved in the appropriate vehicle and pre-incubated with the primary cortical neurons for one hour (1 h), before Aβ1-42 exposure.
On day 11 of culture, the cortical neurons were injured with the AP 1-42 peptide. AP 1-42 peptide was dissolved in the defined culture medium mentioned above, at an initial concentration of 20 μM. The solution was gently agitated for 3 days at 37° C. in the dark and immediately used after being properly diluted in culture medium to the concentration used (5 μM, 0.5 μM oligomers precisely evaluated by automatic WB). The AP 1-42 solution was applied on the culture at […] (0.5 μM oligomers, AβO), in presence of the compound, for 72 hours.
72 hours after the application of Aβ, the cell culture supernatant was removed. Cells were then washed with phosphate-buffered saline (PBS) and fixed with a cold solution of ethanol (95%) and acetic acid (5%) for 5 min at −20° C. After two washing steps with cold PBS, cells permeabilized and unspecific binding sites were blocked with a solution of PBS containing 0.1% of saponin and 1% of FCS, for 15 min at RT. Cells were incubated for 2 hours with: • a) Monoclonal anti-MAP2 antibody produced in mouse at dilution of 1/400 in PBS containing 1% FCS, 0.1% saponin, for 2 hours at room temperature. • b) Rabbit polyclonal antibody anti-SIRP alpha/CD172a (OX-41) at dilution of 1/400 in PBS containing 1% fetal calf serum and 0.1% of saponin (this antibody stains specifically the microglia and will allow to evaluate the activation of the microglial cells).
For each condition, 30 pictures (representative of the whole well area) were automatically taken using ImageXpress® (Molecular Devices) at 20× magnification using the same acquisition parameters. From images, the analyses were automatically performed by MetaXpress® (Molecular Devices). The following read-outs were measured: • Total neuron survival (number of MAP-2(+) neurons), • Total length of neurite network of MAP-2(+) neurons (in μm) • Total area of activated microglia (area of OX-41 signal, in μm^2)
All values are expressed as mean+/−SEM (standard error of the mean). Statistical analysis was performed by one-way ANOVA followed by Fisher's LSD test, with GraphPad Prism. p<0.05 was considered significant.

The mark [1] stands for this setting: 123 and 370 nM, Aβ1-42 72 hours.

Turning to `O=c1oc2cc(O)ccc2c2ccc(OC3CCOCC3)cc12` [compound 33, 3-hydroxy-8-((tetrahydro-2H-pyran-4-yl)oxy)-6H-benzo[c]chromen-6-one], the “microglial activation (conclusion)” value is “significantly reduce” and the “neuroprotection in the inflammatory in vitro model (conclusion)” value is “neuroprotective”. In addition, under setting [1], the “neurite network of cortical neurons (MAP-2)” value is “significantly protect” and the “survival of cortical neurons (MAP-2)” value was “significantly protect”. Also, the “microglial activation (OX-41)” value (between 41.1 nM and 370 nM, Aβ1-42 72 hours) is reported as “significant decrease”.
